Organism: Rattus norvegicus
Test: Open TG-GATES - Regimen: Single
Format: toxicity, organism-based, Sprague-Dawley
Parameters: regimen Single, gender Male, age 6 weeks
Conditions: in vivo, po, route gavage; for gamma-GTP / ALP / ALT / AST / BUN / Ca / Cl / DBIL / GLC / IP / K / LDH / Na / PL / RALB / TBIL / TC / TP / CRE: tissue Plasma; for APTT / Bas / Eos / Fbg / Hb / Ht / Lym / MCH / MCHC / MCV / Mono / Neu / PT / Plat / RBC / Ret / WBC: tissue Blood; for KIDNEY_L / KIDNEY_R / KIDNEY_TOTAL: tissue Kidney; for LIVER: tissue Liver
[1] = 15 mg/kg, 24 h, dose level High
[2] = 50 mg/kg, 3 h, dose level Middle
[3] = 50 mg/kg, 6 h, dose level Middle

O=P1(N(CCCl)CCCl)NCCCO1 (stereo unspecified) [CYCLOPHOSPHAMIDE ANHYDROUS]
gamma-GTP (15 mg/kg, 9 h, dose level High): 1 IU/L | ALP (15 mg/kg, 9 h, dose level Low): 1388.6 IU/L | ALT (15 mg/kg, 9 h, dose level Low): 31.2 IU/L | AST (15 mg/kg, 9 h, dose level Low): 67.6 IU/L | BUN (15 mg/kg, 9 h, dose level Low): 8.2 mg/dL | Ca (15 mg/kg, 9 h, dose level Low): 10.6 mg/dL | Cl (15 mg/kg, 9 h, dose level Low): 106.6 meq/L | DBIL (15 mg/kg, 9 h, dose level Low): 0.012 mg/dL | GLC (15 mg/kg, 9 h, dose level Low): 163.8 mg/dL | IP (15 mg/kg, 9 h, dose level Low): 10.3 mg/dL | K (15 mg/kg, 9 h, dose level Low): 4.4 meq/L | LDH (15 mg/kg, 9 h, dose level Low): 55.2 IU/L | Na (15 mg/kg, 9 h, dose level Low): 142.2 meq/L | PL (15 mg/kg, 9 h, dose level Low): 135.8 mg/dL | RALB (15 mg/kg, 9 h, dose level Low): 2.5 g/dL | TBIL (15 mg/kg, 9 h, dose level Low): 0.058 mg/dL | TC (15 mg/kg, 9 h, dose level Low): 77.4 mg/dL | TP (15 mg/kg, 9 h, dose level Low): 5.2 g/dL | gamma-GTP (15 mg/kg, 9 h, dose level Low): 1.2 IU/L | TERMINAL_BW [1]: 195.1 g | TERMINAL_BW (15 mg/kg, 24 h, dose level Low): 205.2 g | APTT [1]: 21.5 s | Bas [1]: 0% | Eos [1]: 0.8% | Fbg [1]: 304 mg/dL | Hb [1]: 13.6 g/dL | Ht [1]: 40.8% | Lym [1]: 88.2% | MCH [1]: 21.2 pg | MCHC [1]: 33.4% | MCV [1]: 63.5 fL | Mono [1]: 2.4% | Neu [1]: 8% | PT [1]: 16.2 s | Plat [1]: 117.1 x10_4/uL | RBC [1]: 643 x10_4/ul | Ret [1]: 5.3% | WBC [1]: 44.1 x10_2/uL | APTT (15 mg/kg, 24 h, dose level Low): 17.5 s | Fbg (15 mg/kg, 24 h, dose level Low): 286.4 mg/dL | Hb (15 mg/kg, 24 h, dose level Low): 12.9 g/dL | Ht (15 mg/kg, 24 h, dose level Low): 38.1% | Lym (15 mg/kg, 24 h, dose level Low): 85.4% | MCH (15 mg/kg, 24 h, dose level Low): 20.7 pg | MCHC (15 mg/kg, 24 h, dose level Low): 34% | MCV (15 mg/kg, 24 h, dose level Low): 60.9 fL | Mono (15 mg/kg, 24 h, dose level Low): 2% | Neu (15 mg/kg, 24 h, dose level Low): 11.2% | PT (15 mg/kg, 24 h, dose level Low): 14.1 s | Plat (15 mg/kg, 24 h, dose level Low): 116.3 x10_4/uL | RBC (15 mg/kg, 24 h, dose level Low): 625.2 x10_4/ul | Ret (15 mg/kg, 24 h, dose level Low): 6.8% | WBC (15 mg/kg, 24 h, dose level Low): 48.9 x10_2/uL | KIDNEY_L [1]: 0.9 g | KIDNEY_R [1]: 0.9 g | KIDNEY_TOTAL [1]: 1.8 g | LIVER [1]: 8.6 g | LIVER (15 mg/kg, 24 h, dose level Low): 9.1 g | ALP [1]: 1751 IU/L | ALT [1]: 45 IU/L | AST [1]: 71 IU/L | BUN [1]: 14.6 mg/dL | CRE [1]: 0.2 mg/dL | Ca [1]: 10.8 mg/dL | Cl [1]: 104.8 meq/L | DBIL [1]: 0.006 mg/dL | GLC [1]: 179 mg/dL | IP [1]: 8.4 mg/dL | K [1]: 4.3 meq/L | LDH [1]: 195.4 IU/L | Na [1]: 142.4 meq/L | PL [1]: 143.6 mg/dL | RALB [1]: 3.1 g/dL | TBIL [1]: 0.02 mg/dL | TC [1]: 75 mg/dL | TP [1]: 5.5 g/dL | gamma-GTP [1]: 1.2 IU/L | ALP (15 mg/kg, 24 h, dose level Low): 1404.4 IU/L | ALT (15 mg/kg, 24 h, dose level Low): 40.2 IU/L | AST (15 mg/kg, 24 h, dose level Low): 71.4 IU/L | BUN (15 mg/kg, 24 h, dose level Low): 14.4 mg/dL | Ca (15 mg/kg, 24 h, dose level Low): 11.1 mg/dL | Cl (15 mg/kg, 24 h, dose level Low): 105.2 meq/L | DBIL (15 mg/kg, 24 h, dose level Low): 0.02 mg/dL | GLC (15 mg/kg, 24 h, dose level Low): 176.4 mg/dL | IP (15 mg/kg, 24 h, dose level Low): 8.1 mg/dL | K (15 mg/kg, 24 h, dose level Low): 4.5 meq/L | LDH (15 mg/kg, 24 h, dose level Low): 82 IU/L | Na (15 mg/kg, 24 h, dose level Low): 140.8 meq/L | PL (15 mg/kg, 24 h, dose level Low): 159.4 mg/dL | RALB (15 mg/kg, 24 h, dose level Low): 2.6 g/dL | TBIL (15 mg/kg, 24 h, dose level Low): 0.06 mg/dL | TC (15 mg/kg, 24 h, dose level Low): 87.6 mg/dL | TP (15 mg/kg, 24 h, dose level Low): 5.6 g/dL | gamma-GTP (15 mg/kg, 24 h, dose level Low): 1 IU/L | TERMINAL_BW [2]: 190.4 g | APTT [2]: 20 s | Bas [2]: 0% | Eos [2]: 0.8% | Fbg [2]: 281.6 mg/dL | Hb [2]: 13 g/dL | Ht [2]: 38.9% | Lym [2]: 78% | MCH [2]: 20.6 pg | MCHC [2]: 33.4% | MCV [2]: 61.6 fL | Mono [2]: 2.6% | Neu [2]: 17.6% | PT [2]: 13.8 s | Plat [2]: 111.1 x10_4/uL | RBC [2]: 631.6 x10_4/ul | Ret [2]: 9.2% | WBC [2]: 101.7 x10_2/uL | KIDNEY_L [2]: 0.8 g | KIDNEY_R [2]: 0.8 g | KIDNEY_TOTAL [2]: 1.6 g | LIVER [2]: 8.3 g | ALP [2]: 1500.2 IU/L | ALT [2]: 35.8 IU/L | AST [2]: 72.6 IU/L | BUN [2]: 10 mg/dL | CRE [2]: 0.2 mg/dL | Ca [2]: 11.1 mg/dL | Cl [2]: 104.8 meq/L | DBIL [2]: 0.018 mg/dL | GLC [2]: 171.8 mg/dL | IP [2]: 8.7 mg/dL | K [2]: 4.4 meq/L | LDH [2]: 72.6 IU/L | Na [2]: 140.2 meq/L | PL [2]: 160.4 mg/dL | RALB [2]: 2.4 g/dL | TBIL [2]: 0.068 mg/dL | TC [2]: 86.6 mg/dL | TP [2]: 5.3 g/dL | gamma-GTP [2]: 1.4 IU/L | TERMINAL_BW [3]: 187.5 g | APTT [3]: 17.2 s | Bas [3]: 0% | Eos [3]: 0.6% | Fbg [3]: 278.4 mg/dL

Reference: ChEMBL document CHEMBL3885861, “Open TG-GATES”
